Some test systems named below: RPMI-8226 leukemia; COLO 205 colon; HOP-92 NSCLC; SN12C renal; NCI-H226 lung; T-47D breast; SF-268 CNS; SR leukemia; HOP-62 NSCLC; 786-0 renal.
Common to all, as to assay: NCI anticancer screen, dose series, 48 h

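Protocol summary: plate cells (96-well), add compound at 5 concentrations, incubate 48 h, interpolate endpoints linearly. GI50: concentration for 50% inhibition of growth. The concentration for full growth arrest is given as TGI.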

With `CN1C(NNC(=O)c2cccnc2)=NS(=O)(=O)c2cc(Cl)ccc21`, the GI50 in the experiment with RPMI-8226 leukemia, in the experiment on COLO 205 colon, in the experiment on HOP-92 NSCLC, in the experiment on SN12C renal, in the experiment with NCI-H226 lung and in the experiment with T-47D breast was greater than 100 µM in each case. The GI50 in the experiment with SF-268 CNS, in the experiment with SR leukemia, in the experiment on HOP-62 NSCLC and with 786-0 renal was greater than 100 µM in each case. The TGI with RPMI-8226 leukemia, in the experiment on COLO 205 colon, with HOP-92 NSCLC, with SN12C renal, in the experiment on NCI-H226 lung and in the experiment on T-47D breast was greater than 100 µM in each case. Further, the TGI in the experiment on SF-268 CNS, in the experiment with SR leukemia, with HOP-62 NSCLC and with 786-0 renal was greater than 100 µM throughout.

Regarding `CC1=NC(C)(COC(=O)C2(C)NC(C)(CO)CO2)COC1=O` (stereo not drawn), the TGI in the experiment on RPMI-8226 leukemia, in the experiment with COLO 205 colon, in the experiment with HOP-92 NSCLC, with SN12C renal, in the experiment with NCI-H226 lung and in the experiment with T-47D breast was greater than 100 µM in each case. Also, the TGI with SF-268 CNS, with SR leukemia, in the experiment on HOP-62 NSCLC and with 786-0 renal was greater than 100 µM each time.

Turning to `COc1ccc(-c2ccc(NNC(=O)c3ccc(F)cc3)nn2)cc1OC`, the GI50 in the experiment on RPMI-8226 leukemia was 35.3 µM; in the experiment on COLO 205 colon, greater than 100 µM; with HOP-92 NSCLC, 17.8 µM; in the experiment with SN12C renal, greater than 100 µM; in the experiment with NCI-H226 lung, 71.8 µM; with T-47D breast, 28.1 µM. The GI50 in the experiment on SF-268 CNS was 79.8 µM; with SR leukemia, greater than 100 µM; in the experiment with HOP-62 NSCLC it was 91.7 µM; in the experiment on 786-0 renal it was greater than 100 µM. The TGI in the experiment on RPMI-8226 leukemia is greater than 100 µM; in the experiment with COLO 205 colon, greater than 100 µM; in the experiment with HOP-92 NSCLC, 99.3 µM; in the experiment with SN12C renal, greater than 100 µM; in the experiment on NCI-H226 lung, greater than 100 µM; in the experiment with T-47D breast, greater than 100 µM. Moreover, the TGI in the experiment with SF-268 CNS, with SR leukemia, in the experiment on HOP-62 NSCLC and in the experiment on 786-0 renal was greater than 100 µM in each case.

`O=C(NC1CCCCC1)c1ccc(Nc2ncnc3c2cnn3-c2ccccc2)cc1`: the GI50 with RPMI-8226 leukemia was greater than 100 µM; in the experiment on COLO 205 colon, 12.5 µM; in the experiment on HOP-92 NSCLC it was 2.53 µM; with SN12C renal, 8.26 µM; with NCI-H226 lung it was 3.35 µM; in the experiment with T-47D breast, 20.2 µM. For the same compound, the GI50 in the experiment with SF-268 CNS is 5.85 µM; with SR leukemia, 11.6 µM; in the experiment with HOP-62 NSCLC, 2.62 µM; with 786-0 renal it was 3.47 µM. Moreover, the TGI in the experiment with RPMI-8226 leukemia was greater than 100 µM; in the experiment with COLO 205 colon, greater than 100 µM; with HOP-92 NSCLC it was 8.29 µM; in the experiment on SN12C renal, greater than 100 µM; with NCI-H226 lung, 21.5 µM; with T-47D breast it was greater than 100 µM. Further, the TGI with SF-268 CNS is greater than 100 µM; in the experiment with SR leukemia it was 49.1 µM; with HOP-62 NSCLC, 8.77 µM; in the experiment on 786-0 renal, 18.3 µM.

As for `COc1cc2c3c(n(CCCN(CCO)CCO)c(=O)c2cc1OC)-c1cc2c(cc1C3=O)OCO2`, the GI50 is less than 0.01 µM in the experiment on RPMI-8226 leukemia; 0.218 µM in the experiment on COLO 205 colon; less than 0.01 µM in the experiment on SN12C renal; 0.0377 µM in the experiment on NCI-H226 lung; 0.144 µM in the experiment with T-47D breast; less than 0.0332 µM with SF-268 CNS. Moreover, the GI50 with SR leukemia, in the experiment on HOP-62 NSCLC and in the experiment with 786-0 renal was less than 0.01 µM each time. Moreover, the TGI was 0.207 µM with RPMI-8226 leukemia; 12.7 µM in the experiment on COLO 205 colon; 4.18 µM in the experiment with HOP-92 NSCLC; 0.285 µM with SN12C renal; 0.724 µM with NCI-H226 lung; greater than 22.7 µM in the experiment on T-47D breast. Also, the TGI is 7.26 µM in the experiment with SF-268 CNS, less than 0.01 µM in the experiment with SR leukemia and 0.0646 µM in the experiment on 786-0 renal.

With `O=C(N/N=C/c1ccc(O)cc1O)c1cccnc1`, the GI50 is 4.13 µM in the experiment with RPMI-8226 leukemia; 2.8 µM in the experiment on COLO 205 colon; 2.09 µM with HOP-92 NSCLC; 3.58 µM with SN12C renal; 4.58 µM with NCI-H226 lung; 3.45 µM in the experiment with T-47D breast. The GI50 in the experiment with SF-268 CNS is 2.22 µM; in the experiment with SR leukemia, 3.21 µM; with HOP-62 NSCLC, 13.4 µM; in the experiment on 786-0 renal, 4.28 µM. Moreover, the TGI is greater than 100 µM in the experiment on RPMI-8226 leukemia; greater than 100 µM in the experiment on COLO 205 colon; 43.5 µM in the experiment with HOP-92 NSCLC; 69 µM in the experiment with SN12C renal; 84.3 µM with NCI-H226 lung; 86 µM in the experiment on T-47D breast. The TGI in the experiment with SF-268 CNS was 59.4 µM; in the experiment with SR leukemia it was greater than 100 µM; in the experiment on HOP-62 NSCLC, greater than 100 µM; with 786-0 renal it was greater than 100 µM.

With `CS(=O)(=O)CS(=O)(=O)OCCCl`, the TGI turned out to be 3170 µM with RPMI-8226 leukemia; 831 µM in the experiment with COLO 205 colon; 824 µM in the experiment with HOP-92 NSCLC; 706 µM with SN12C renal; 785 µM with NCI-H226 lung; 1530 µM in the experiment on T-47D breast. Moreover, the TGI in the experiment with SF-268 CNS stood at 990 µM; with SR leukemia, 876 µM; with HOP-62 NSCLC, 151 µM; in the experiment with 786-0 renal it was 514 µM.

For the compound `CC(=O)NC1CONC1=O` (stereo not drawn), the TGI in the experiment with RPMI-8226 leukemia, in the experiment on COLO 205 colon, in the experiment on HOP-92 NSCLC, with SN12C renal, in the experiment on NCI-H226 lung and in the experiment with T-47D breast was greater than 100 µM each time. Moreover, the TGI with SF-268 CNS, with SR leukemia, in the experiment with HOP-62 NSCLC and in the experiment on 786-0 renal was greater than 100 µM throughout.

Regarding `C=CCn1c(SCC(=O)Nc2ccc(C(=O)/C=C/c3cc(OC)c(OC)c(OC)c3)cc2)nnc1-c1ccc(OC)cc1`, the GI50 in the experiment on RPMI-8226 leukemia is 0.202 µM; in the experiment with COLO 205 colon, 0.399 µM; in the experiment on HOP-92 NSCLC, 2.25 µM; in the experiment on SN12C renal, 0.839 µM; in the experiment with NCI-H226 lung, 0.445 µM; in the experiment on T-47D breast, 0.455 µM. Besides, the GI50 with SF-268 CNS was 0.399 µM; in the experiment on SR leukemia it was 0.255 µM; in the experiment on HOP-62 NSCLC, 0.691 µM; in the experiment on 786-0 renal, 0.583 µM. Moreover, the TGI with RPMI-8226 leukemia was 0.68 µM; in the experiment on COLO 205 colon it was 3.83 µM; in the experiment on HOP-92 NSCLC, 16.4 µM; with SN12C renal, 19.1 µM; with NCI-H226 lung it was 1.55 µM; in the experiment on T-47D breast, 5.73 µM. The TGI is 11.2 µM in the experiment with SF-268 CNS, greater than 46.1 µM in the experiment on SR leukemia, 1.75 µM with HOP-62 NSCLC and 2.61 µM in the experiment with 786-0 renal.
